Data published in patent publication US10330672B2, “Method for screening activator of mitochondrial activity” (INTELLIGENT SYNTHETIC BIOLOGY CENTER, priority 2015, dated 2019).

Key:
[1] = tested on: INS-1 cells; experiment: Mitochondrial membrane potential by TMRM staining and FACS in INS-1 cells; type: cell-based; details: 10 μM, 2 hours, TMRM staining, vs DMSO control
Experimental: (§1) Initially, the INS-1 cells, which are insulin-secreting cells, were cultured in a cell incubator (37° C., 5% CO2, RPMI medium, 10% FBS), were treated with 10 μM of gypenoside 75, ginsenoside F1, ginsenoside Rg3, ginsenoside Rb2, or ginsenoside Rb3 for 2 hours, and the intracellular ATP amount and mitochondrial membrane potential were measured. For the control group, cells treated with DMSO were used.
In the final stage, the mitochondrial membrane potential was measured by tetramethylrhodamine methyl ester (TMRM) staining. As the level of the TMRM staining increases proportionately to the mitochondrial membrane potential, the intracellular mitochondrial membrane potential can be measured by measuring the level of the TMRM staining.
Specifically, the INS-1 cells treated with each of the above materials were stained with TMRM, and applied to fluorescence-activated cell sorting (FACS). Then, the level of the staining was quantified, analyzed, and compared (FIG. 2).

[2] = tested on: INS-1 cells; experiment: Intracellular ATP amount by luciferase assay in INS-1 cells; type: cell-based; details: 10 μM, 2 hours, vs DMSO control
Experimental: as §1
Next, the amount of ATP was measured using luciferase. As the fluorescence by activation of luciferase depends on the amount of ATP, the intracellular ATP amount can be measured by measuring the level of the fluorescence emission.
Specifically, the INS-1 cells treated with each of the above materials were lysed through freezing-thawing and ultrasonication treatments to obtain a cell lysate. Luciferase and luciferin were added to the obtained cell lysate above to induce fluorescence, and the levels of the fluorescence were quantified and compared (FIG. 1).

Structure (SMILES): CC(C)=CCC[C@](C)(O[C@@H]1O[C@H](CO[C@@H]2O[C@H](CO)[C@@H](O)[C@H](O)[C@H]2O)[C@@H](O)[C@H](O)[C@H]1O)[C@H]1CC[C@]2(C)[C@@H]1[C@H](O)C[C@@H]1[C@@]3(C)CC[C@H](O)C(C)(C)[C@@H]3CC[C@]12C [gypenoside 75]
- increase of intracellular mitochondrial membrane potential compared with the control group [1]: 40%
- increase of intracellular ATP amount compared with the control group [2]: 50%
